Test results taken from paper PMC6272861, “In Vitro Inhibition of Human UDP-Glucuronosyl-Transferase (UGT) Isoforms by Astaxanthin, β-Cryptoxanthin, Canthaxanthin, Lutein, and Zeaxanthin: Prediction of in Vivo Dietary Supplement-Drug Interactions” (Molecules, 2016).
Values belong to the compound of their own block, whether it stands above or below them.

Assays:
UGT2B15 = target: T1, UGT2B15 (Homo sapiens, UniProt P54855); test: Inhibition of UGT2B15 (4-methylumbelliferyl glucuronidation) in recombinant human UGT2B15 supersomes; type: in vitro ADME; conditions: recombinant UGT2B15 supersomes, 250 μM 4-methylumbelliferone, mean ± SD of triplicate; read-out: IC50 towards UGT2B15
T1 construct: purchased Corning Life Sciences
T1 sequence (P54855 24-530): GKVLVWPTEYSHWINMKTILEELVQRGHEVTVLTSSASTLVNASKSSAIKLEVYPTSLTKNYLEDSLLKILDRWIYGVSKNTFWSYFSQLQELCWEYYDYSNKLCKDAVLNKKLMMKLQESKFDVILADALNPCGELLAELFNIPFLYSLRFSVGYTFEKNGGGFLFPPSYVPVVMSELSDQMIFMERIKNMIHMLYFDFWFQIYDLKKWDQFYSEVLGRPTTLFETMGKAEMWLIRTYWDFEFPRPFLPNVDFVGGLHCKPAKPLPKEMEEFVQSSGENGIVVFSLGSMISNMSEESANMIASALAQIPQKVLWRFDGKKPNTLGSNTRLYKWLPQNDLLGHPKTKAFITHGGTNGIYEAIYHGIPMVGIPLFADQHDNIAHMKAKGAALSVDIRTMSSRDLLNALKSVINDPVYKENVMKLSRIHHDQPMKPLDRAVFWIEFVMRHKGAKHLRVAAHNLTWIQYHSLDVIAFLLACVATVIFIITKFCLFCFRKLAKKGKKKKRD
Protocol: Although S-oxazepam is a typical substrate of UGT2B15 of human liver microsomes, authentic S-oxazepam and the corresponding glucuronide are not commercially […]. Thus, the inhibition of AS, βC, CA, LU, and ZE on the UGT2B15 activity was assessed using 4-methylumbelliferone as the nonspecific probe substrate for all UGTs except UGT1A4 [34] in recombinant human UGT2B15 supersomes.
The reaction was initiated by addition of 10 µL 5 mM UDPGA (to 100 µL total volume) followed by incubation for 120 min at 37 °C in a shaking water bath. Reactions were stopped by addition of 50 µL of ice-cold acetonitrile containing chlorpropamide (300 ng/mL) as an internal standard, and they were chilled and centrifuged (13,000 g, 15 min, 4 °C). An aliquot of 5 μL of supernatant was injected into an LC-MS/MS system. Additionally, identical parallel incubation samples containing a known UGT2B15 inhibitor amitriptyine (0–200 μM) was included as a positive control for UGT2B15.
(§1) For visual inspection, data were presented as Dixon plots.

UGT1A4 = target: T2, UGT1A4 (Homo sapiens, UniProt P22310); test: Inhibition of UGT1A4 (trifluoperazine-N-glucuronidation) in human liver microsomes; type: in vitro ADME; conditions: 4 μM trifluoperazine, mean ± SD of triplicate, read-out: IC50 towards UGT1A4
T2 construct: pooled human liver microsomes (final concentration 0.25 mg/mL); tissue Corning Life Sciences; host or cells: pooled human liver microsomes, 150 donors
T2 sequence (P22310 29-534): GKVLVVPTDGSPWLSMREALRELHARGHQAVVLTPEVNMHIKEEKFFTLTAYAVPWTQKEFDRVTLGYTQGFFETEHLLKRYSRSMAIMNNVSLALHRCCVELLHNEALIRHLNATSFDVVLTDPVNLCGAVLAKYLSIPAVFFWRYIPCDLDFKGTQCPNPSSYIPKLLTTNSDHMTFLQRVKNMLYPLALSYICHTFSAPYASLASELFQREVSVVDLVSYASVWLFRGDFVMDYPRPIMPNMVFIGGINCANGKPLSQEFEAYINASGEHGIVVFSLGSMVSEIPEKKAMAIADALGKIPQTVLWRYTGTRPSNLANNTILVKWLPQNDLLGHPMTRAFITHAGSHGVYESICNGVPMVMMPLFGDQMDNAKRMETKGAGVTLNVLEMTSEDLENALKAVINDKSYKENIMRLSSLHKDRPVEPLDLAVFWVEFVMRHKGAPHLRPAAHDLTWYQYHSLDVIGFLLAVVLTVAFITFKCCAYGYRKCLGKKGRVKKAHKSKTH
Protocol: (§2) The formation activities of β-estradiol-3-glucuronide, chenodeoxycholic acid 24-acyl-β-D-glucuronide, trifluoperazine-N-glucuronide, imipramine-N-β-D-glucuronide, serotonin-O-glucuronide, propofol-O-glucuronide, and zidovudine-5′-glucuronide were determined to probe the activities of UGT1A1, UGT1A3, UGT1A4, UGT1A6, UGT1A9 and UGT2B7, respectively, in human liver microsomes.
(§3) In brief, the 90-µL incubation mixture, including pooled human liver microsomes (final concentration 0.25 mg/mL), 100 mM Tris buffer, 25 µg/mL alamethicin, 5 mM MgCl2, the UGT-selective substrates, and five xanthophylls (0–50 μM), were pre-incubated for 30 min on ice to allow formation of alamethicin pores. Reac2345tions were initiated by the addition of 10 μL of UDPGA (5 mM) to a final reaction volume of 0.1 mL and incubated at 37 °C for 60 min (except 30 min for UGT1A9) in a shaking water bath. After incubation, each reaction was stopped by adding 50 μL of ice-cold acetonitrile containing chlorpropamide (300 ng/mL) or theophylline (30 μg/mL or 300 μg/mL) as an internal standard. The mixtures were then centrifuged (13,000 g for 15 min at 4 °C) and 5-µL aliquots of the supernatants were injected into an LC-MS/MS system. […] All incubations were performed in triplicate, and mean values were used for analysis.
(§4) Chromatographic separations were performed on an Agilent Poroshell 120 EC-C18 column (50 mm × 4.6-mm i.d.; 2.7-μm particle size; Agilent Technologies) to quantify β-estradiol-3-glucuronide (UGT1A1), chenodeoxycholic acid 24-acyl-β-D-glucuronide (UGT1A3), trifluoperazine-N-glucuronide (UGT1A4), propofol-O-glucuronide (UGT1A9), zidovudine-5′-glucuronide (UGT2B7), and 4-methylumbelliferyl glucuronide (UGT2B15); an Agilent Poroshell 120 EC-C18 column (100 × 4.6-mm i.d.; 2.7-mm particle size) was used for quantification of serotonin-O-glucuronide (UGT1A6). The isocratic mobile phase consisted of distilled water (A) and acetonitrile containing 0.1% formic acid (B) at a ratio (v/v) of 10:90 for chenodeoxycholic acid 24-acyl-β-D-glucuronide, 30:70 for trifluoperazine-N-glucuronide and zidovudine-5′-glucuronide, 50:50 for propofol-O-glucuronide and 4-methylumbelliferyl glucuronide, 65:35 for β-estradiol-3-glucuronide, and 90:10 for serotonin-O-glucuronide, at a flow rate of 0.5 mL/min. The total run time was 4.0 min per sample for each metabolite, with the exception of serotonin-O-glucuronide (6.0 min). Peak areas for all of the analytes were automatically integrated using Analyst software (version 1.5.2, Applied Biosystems, Foster City, CA, USA).
(§5) The IC50 values were calculated via nonlinear least-squares regression analysis from plots of the logarithms of inhibitor concentration vs. the residual percentages of activities after inhibition, using WinNonlin (ver. 4.0; Pharsight, Mountain View, CA, USA).

UGT1A9 = target: T3, UGT1A9 (Homo sapiens, UniProt O60656); test: Inhibition of UGT1A9 (propofol-O-glucuronidation) in human liver microsomes
T3 sequence (O60656 26-530): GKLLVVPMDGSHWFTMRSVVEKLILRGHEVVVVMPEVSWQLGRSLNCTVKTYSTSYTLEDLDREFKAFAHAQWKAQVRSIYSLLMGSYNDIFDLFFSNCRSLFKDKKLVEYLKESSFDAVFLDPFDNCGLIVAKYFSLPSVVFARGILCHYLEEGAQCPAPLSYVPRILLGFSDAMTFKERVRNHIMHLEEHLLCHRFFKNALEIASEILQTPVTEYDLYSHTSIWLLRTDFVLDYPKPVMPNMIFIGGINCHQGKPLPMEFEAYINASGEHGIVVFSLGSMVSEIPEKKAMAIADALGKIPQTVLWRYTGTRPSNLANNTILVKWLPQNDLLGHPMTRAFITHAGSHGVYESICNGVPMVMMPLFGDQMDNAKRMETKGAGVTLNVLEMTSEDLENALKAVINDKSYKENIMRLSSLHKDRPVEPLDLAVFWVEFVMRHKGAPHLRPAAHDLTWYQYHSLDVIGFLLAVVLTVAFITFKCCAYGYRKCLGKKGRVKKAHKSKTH
Protocol: as §2, §3, §4, §5

UGT1A1 = target: T4, UGT1A1 (Homo sapiens, UniProt P22309); test: Ki determination on UGT1A1 activity (β-estradiol-3-glucuronidation) in human liver microsomes; conditions: Dixon plots / nonlinear regression
T4 sequence (P22309 26-533): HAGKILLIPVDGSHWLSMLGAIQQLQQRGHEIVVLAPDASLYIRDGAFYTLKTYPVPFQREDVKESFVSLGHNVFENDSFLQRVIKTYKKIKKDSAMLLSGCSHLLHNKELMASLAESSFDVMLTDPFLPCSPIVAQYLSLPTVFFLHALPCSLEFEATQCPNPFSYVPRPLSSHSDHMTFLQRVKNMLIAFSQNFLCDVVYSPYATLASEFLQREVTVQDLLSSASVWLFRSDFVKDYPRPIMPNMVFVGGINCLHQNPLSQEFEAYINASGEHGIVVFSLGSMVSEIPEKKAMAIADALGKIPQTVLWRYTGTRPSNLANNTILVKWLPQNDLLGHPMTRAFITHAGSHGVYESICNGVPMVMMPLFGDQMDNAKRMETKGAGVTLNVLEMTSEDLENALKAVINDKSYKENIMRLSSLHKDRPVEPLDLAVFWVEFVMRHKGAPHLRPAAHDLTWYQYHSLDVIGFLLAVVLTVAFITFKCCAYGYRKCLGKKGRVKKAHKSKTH
Protocol: Based on the lowest IC50 value, the inhibitor constant (Ki) values of the βC for UGT1A1 were determined. […] All incubations were performed in triplicate, and the mean values were used for the analysis. Other procedures were similar to those of the reversible inhibition studies.
as §1

UGT2B7 = target: T5, UGT2B7 (Homo sapiens, UniProt P16662); test: Inhibition of UGT2B7 (zidovudine-5′-glucuronidation) in human liver microsomes
T5 sequence (P16662 24-529): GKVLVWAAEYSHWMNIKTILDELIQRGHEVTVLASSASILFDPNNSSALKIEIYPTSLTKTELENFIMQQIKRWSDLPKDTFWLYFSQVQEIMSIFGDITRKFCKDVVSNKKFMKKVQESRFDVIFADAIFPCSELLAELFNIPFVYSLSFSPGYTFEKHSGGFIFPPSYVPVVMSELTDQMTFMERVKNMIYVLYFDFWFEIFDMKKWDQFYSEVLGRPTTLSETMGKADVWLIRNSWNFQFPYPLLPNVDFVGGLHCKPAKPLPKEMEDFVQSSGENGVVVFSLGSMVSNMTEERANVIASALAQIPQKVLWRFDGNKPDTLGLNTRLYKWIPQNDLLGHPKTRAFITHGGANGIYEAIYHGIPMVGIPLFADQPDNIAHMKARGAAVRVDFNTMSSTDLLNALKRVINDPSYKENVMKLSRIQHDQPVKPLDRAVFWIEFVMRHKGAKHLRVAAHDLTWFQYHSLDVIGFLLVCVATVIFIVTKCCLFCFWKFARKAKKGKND
Protocol: as §2, §3, §4, §5

UGT1A3 = target: T6, UGT1A3 (Homo sapiens, UniProt P35503)
T6 sequence (P35503 29-534): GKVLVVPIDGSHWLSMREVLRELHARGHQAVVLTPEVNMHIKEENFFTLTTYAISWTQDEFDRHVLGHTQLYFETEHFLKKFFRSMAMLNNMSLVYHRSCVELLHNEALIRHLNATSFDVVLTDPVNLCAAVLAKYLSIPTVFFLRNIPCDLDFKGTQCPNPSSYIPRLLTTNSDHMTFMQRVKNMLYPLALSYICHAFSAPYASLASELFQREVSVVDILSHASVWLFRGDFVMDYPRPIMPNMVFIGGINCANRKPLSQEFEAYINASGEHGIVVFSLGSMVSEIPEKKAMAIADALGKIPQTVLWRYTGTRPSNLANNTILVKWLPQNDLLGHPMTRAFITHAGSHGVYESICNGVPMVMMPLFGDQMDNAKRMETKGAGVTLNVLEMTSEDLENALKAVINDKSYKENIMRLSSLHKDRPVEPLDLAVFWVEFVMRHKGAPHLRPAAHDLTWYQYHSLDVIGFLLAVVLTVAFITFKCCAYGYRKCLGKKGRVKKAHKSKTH
Protocol: as §2, §3, §4, §5

SMILES: C[C@@H]1CC[C@@]2(OC1)O[C@H]1C[C@H]3[C@@H]4CC[C@H]5C[C@@H](O)CC[C@]5(C)[C@H]4CC(=O)[C@]3(C)[C@H]1[C@@H]2C [Hecogenin, hecogenin, reference compound]
- IC50 (UGT1A4): 8.07 ± 2.6 µM

SMILES: O=C(O)c1cccnc1Nc1cccc(C(F)(F)F)c1 [Niflumic acid, niflumic acid, reference compound]
- IC50 (UGT1A9): 0.39 ± 0.0256 µM

SMILES: O=C1Nc2ccc(Cl)cc2[C@@](C#CC2CC2)(C(F)(F)F)O1 [Efavirenz, efavirenz, reference compound]
- IC50 (UGT2B7): 37.8 ± 2.37 µM

Results, then the compound that gave them:

- IC50 (UGT2B15): 69.4 ± 10.6 µM
SMILES: CN(C)CCC=C1c2ccccc2CCc2ccccc21 [Amitriptyline, amitriptyline, reference compound]

- Mode of inhibition of UGT1A1 (UGT1A1): competitive inhibition
SMILES: Cc1cn(-c2cc(NC(=O)c3ccc(C)c(Nc4nccc(-c5cccnc5)n4)c3)cc(C(F)(F)F)c2)cn1 [Nilotinib, nilotinib, reference compound]

- IC50 (UGT1A3): 5.17 ± 0.7 µM
SMILES: COc1cc2c(c(OC)c1OC)-c1c(cc(OC)c(OC)c1OC)C[C@H](C)[C@H](C)C2 [Deoxyschizandrin, deoxyschizandrin]
